Assay results from US8435990B2, “Dihydropyrimidone amides as P2X7 modulators” (Roche Palo Alto LLC, priority 2009, dated 2013).

Target: T1, human P2X7 (Homo sapiens, UniProt Q99572)
T1 construct: 1321N1 cells stably expressing the full length human P2X7 gene (1321N1-hP2X7)
T1 sequence (Q99572 1-595): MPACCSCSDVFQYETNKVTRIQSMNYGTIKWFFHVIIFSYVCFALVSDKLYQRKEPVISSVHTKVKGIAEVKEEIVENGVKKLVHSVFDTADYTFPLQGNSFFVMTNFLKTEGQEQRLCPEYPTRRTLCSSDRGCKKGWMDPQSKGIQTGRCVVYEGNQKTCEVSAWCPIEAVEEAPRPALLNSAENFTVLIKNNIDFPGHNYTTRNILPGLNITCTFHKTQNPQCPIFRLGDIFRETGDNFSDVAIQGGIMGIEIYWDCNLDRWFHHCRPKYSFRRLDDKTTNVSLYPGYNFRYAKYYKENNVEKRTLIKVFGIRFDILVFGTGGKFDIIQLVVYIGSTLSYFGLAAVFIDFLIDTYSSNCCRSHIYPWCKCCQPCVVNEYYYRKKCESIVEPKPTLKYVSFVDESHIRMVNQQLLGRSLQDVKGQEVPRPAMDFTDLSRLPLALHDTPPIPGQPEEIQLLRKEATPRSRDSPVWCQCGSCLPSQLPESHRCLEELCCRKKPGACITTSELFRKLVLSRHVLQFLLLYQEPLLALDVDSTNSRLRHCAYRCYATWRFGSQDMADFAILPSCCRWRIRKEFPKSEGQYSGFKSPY
Assay: P2X7 modulator pIC50 of Table 1 (assay not given; Intracellular Calcium Flux (FLIPR) Assay assumed)
Type: cell-based
Summary of the method: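 1321N1 cells expressing human P2X7, fluo-3 loaded, pre-equilibrated 20 min at RT with antagonist; 100 μM BzATP agonist added and calcium fluorescence recorded 5 min on FLIPR. BzATP-evoked maximum normalised to 5 μM ionomycin response. HEK293 rat P2X7 cells used 5 μM BzATP.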

Row | SMILES | IC50
1 | Cc1ccc(=O)n(-c2ccc(C)c(NC(=O)C3=CN(C)C(=O)N[C@H]3c3ccc(F)cc3)c2)c1 [Compound 71, (S)-4-(4-Fluoro-phenyl)-1-methyl-2-oxo-1,2,3,4-tetrahydro-pyrimidine-5-carboxylic acid [2-methyl-5-(5-methyl-2-oxo-2H-pyridin-1-yl)-phenyl]-amide] | 43.2 nM
2 | CN1C=C(C(=O)Nc2cc(-c3ccnn(C)c3=O)ccc2F)[C@H](c2ccc(F)cc2)NC1=O [Compound 72, (S)-4-(4-Fluoro-phenyl)-1-methyl-2-oxo-1,2,3,4-tetrahydro-pyrimidine-5-carboxylic acid [2-fluoro-5-(2-methyl-3-oxo-2,3-dihydro-pyridazin-4-yl)-phenyl]-amide] | 15.7 nM
3 | CN1C=C(C(=O)Nc2cc(-n3ncccc3=O)ccc2F)[C@H](c2ccc(F)cc2)NC1=O [Compound 74, (S)-4-(4-Fluoro-phenyl)-1-methyl-2-oxo-1,2,3,4-tetrahydro-pyrimidine-5-carboxylic acid [2-fluoro-5-(6-oxo-6H-pyridazin-1-yl)-phenyl]-amide] | 101 nM

More lines, now with the values ahead:

Row | IC50 | SMILES
4 | 19.3 nM | Cc1cc(F)c(-n2ncccc2=O)cc1NC(=O)C1=CN(C)C(=O)N[C@H]1c1ccc(F)cc1 [Compound 69, (S)-4-(4-Fluoro-phenyl)-1-methyl-2-oxo-1,2,3,4-tetrahydro-pyrimidine-5-carboxylic acid [4-fluoro-2-methyl-5-(6-oxo-6H-pyridazin-1-yl)-phenyl]-amide]
5 | 33.1 nM | Cc1cc(F)c(-c2cccn(C)c2=O)cc1NC(=O)C1=CN(C)C(=O)N[C@H]1c1ccc(F)cc1 [Compound 70, (S)-4-(4-Fluoro-phenyl)-1-methyl-2-oxo-1,2,3,4-tetrahydro-pyrimidine-5-carboxylic acid [4-fluoro-2-methyl-5-(1-methyl-2-oxo-1,2-dihydro-pyridin-3-yl)-phenyl]-amide]
6 | 56.9 nM | Cc1cnn(-c2cc(NC(=O)C3=CN(C)C(=O)N[C@H]3c3ccc(F)cc3)c(C)cc2F)c(=O)c1 [Compound 73, (S)-4-(4-Fluoro-phenyl)-1-methyl-2-oxo-1,2,3,4-tetrahydro-pyrimidine-5-carboxylic acid [4-fluoro-2-methyl-5-(4-methyl-6-oxo-6H-pyridazin-1-yl)-phenyl]-amide]
